The results in this text go back to ChEMBL document CHEMBL1201862, “PubChem BioAssay data set” (2004).

Some test systems named below: A498; MDA-N; OVCAR-8; OVCAR-3; RXF 393; U-251; NCI-H460; SK-MEL-2; 786-0; KM12; UACC-62; EKVX; BT-549; UACC-257; TK-10; IGROV-1; OVCAR-4; SF-268; HL-60.
Common to all, as to test: growth of human tumour cells (NCI), 48 h

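Briefly, cells in 96-well plates were exposed to five compound concentrations for 48 h, and endpoints were estimated by linear interpolation. Abbreviation: GI50, concentration required for 50% inhibition of growth.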 Active and inactive are the calls of the source. Cut-off read from the data, not from the text of the source: active = GI50 up to about 1.1 µM and inactive = higher.

In the case of `NC1=NC(c2ccc(Cl)cc2)N(c2ccc(S(N)(=O)=O)cc2)C(N)=N1` (stereo not drawn), the GI50 in the assay on A498, in the assay on MDA-N, in the assay on OVCAR-8, in the assay with OVCAR-3, with RXF 393 and in the assay with U-251 was > 100 µM (inactive) throughout. In addition, the GI50 in the assay on NCI-H460, with SK-MEL-2, in the assay with 786-0, with KM12, with UACC-62 and in the assay on EKVX was > 100 µM (inactive) throughout. Further, the GI50 in the assay with BT-549, in the assay with UACC-257, in the assay with TK-10, in the assay on IGROV-1, in the assay on OVCAR-4 and in the assay on SF-268 was > 100 µM (inactive) throughout.
With `CC(O)(c1ccccc1)c1nccc2ccccc12` (stereo not drawn), the GI50 is 71.4 µM (inactive) in the assay with A498; 23.4 µM (inactive) in the assay on MDA-N; > 100 µM (inactive) in the assay with OVCAR-8; 57.9 µM (inactive) in the assay with OVCAR-3; > 100 µM (inactive) in the assay with RXF 393; 45.5 µM (inactive) in the assay on U-251. Moreover, the GI50 in the assay with NCI-H460 is 96.4 µM (inactive); with 786-0, > 100 µM (inactive); in the assay on HL-60, > 100 µM (inactive); with KM12 it was 36.4 µM (inactive); in the assay with UACC-62, 50.6 µM (inactive); with BT-549, 56.1 µM (inactive). The GI50 in the assay with UACC-257 was > 100 µM (inactive); with TK-10, > 100 µM (inactive); with IGROV-1, 37.8 µM (inactive); in the assay with OVCAR-4, 37.7 µM (inactive); with SF-268, 95.7 µM (inactive).
In the case of `Cc1sc2c(c1C)C(=O)c1cccn1-2`, the GI50 in the assay on A498 was 60 µM (inactive); with MDA-N it was 28.6 µM (inactive); in the assay on OVCAR-8, > 100 µM (inactive); in the assay with OVCAR-3, > 100 µM (inactive); in the assay on RXF 393 it was 59 µM (inactive); in the assay on U-251 it was 61.7 µM (inactive). Also, the GI50 in the assay on NCI-H460 is > 100 µM (inactive); in the assay with SK-MEL-2, > 100 µM (inactive); with 786-0, 87.7 µM (inactive); in the assay on KM12, > 100 µM (inactive); in the assay on UACC-62, 62.7 µM (inactive); in the assay with EKVX, 56.4 µM (inactive). Further, the GI50 was 47.2 µM (inactive) in the assay with BT-549; > 100 µM (inactive) with UACC-257; > 100 µM (inactive) with TK-10; 64.7 µM (inactive) in the assay with IGROV-1; > 100 µM (inactive) in the assay with OVCAR-4; > 100 µM (inactive) with SF-268.
`CCCCCCCCCCCCCCCCCCNc1nc(=O)n(C2CC(O)C(COP(=O)(O)OCC3OC(n4ccc(N)nc4=O)C(O)C3O)O2)cc1F` (stereo not drawn): the GI50 was 17.2 µM (inactive) in the assay on A498; > 100 µM (inactive) in the assay on MDA-N; 4.13 µM (inactive) in the assay with OVCAR-8; > 100 µM (inactive) in the assay on OVCAR-3; > 100 µM (inactive) in the assay with RXF 393; 23.7 µM (inactive) in the assay with U-251. Further, the GI50 was 4.5 µM (inactive) in the assay on NCI-H460; > 100 µM (inactive) with SK-MEL-2; 8.34 µM (inactive) in the assay on 786-0; > 100 µM (inactive) in the assay on KM12; 80.4 µM (inactive) with UACC-62; > 100 µM (inactive) in the assay with EKVX. For the same molecule, the GI50 is 31.1 µM (inactive) in the assay with BT-549; > 100 µM (inactive) in the assay on UACC-257; > 100 µM (inactive) in the assay with TK-10; 30.3 µM (inactive) in the assay with IGROV-1; 93.5 µM (inactive) in the assay with OVCAR-4; 32.1 µM (inactive) in the assay on SF-268.
For the molecule `CSc1nc(Cl)c2c(n1)Sc1nc3ccccc3n1C2O` (stereo not drawn), the GI50 in the assay on A498 is > 79.1 µM (inactive); with MDA-N, 2.86 µM (inactive); in the assay with OVCAR-8 it was 2.84 µM (inactive); with OVCAR-3, 5.3 µM (inactive); in the assay with RXF 393, 1.58 µM (inactive); in the assay with U-251, 3.67 µM (inactive). For the same molecule, the GI50 in the assay with NCI-H460 is 13.4 µM (inactive); in the assay on SK-MEL-2, 4.38 µM (inactive); in the assay on 786-0, 2.15 µM (inactive); in the assay on KM12, 3.44 µM (inactive); in the assay on UACC-62, 3.42 µM (inactive); in the assay on EKVX, 33.4 µM (inactive). For the same molecule, the GI50 with BT-549 was 4.73 µM (inactive); in the assay on UACC-257 it was 13.5 µM (inactive); in the assay on TK-10, 7.13 µM (inactive); in the assay with IGROV-1, 3.87 µM (inactive); in the assay on OVCAR-4, 17.2 µM (inactive); in the assay with SF-268, 5.25 µM (inactive).
Consider `O=C(C=P(c1ccccc1)(c1ccccc1)c1ccccc1)c1cccc(-c2cccc([N+](=O)[O-])c2)c1`, for which the GI50 with A498 is 1.83 µM (inactive); with MDA-N, 2.49 µM (inactive); with OVCAR-8, 3.57 µM (inactive); in the assay on OVCAR-3, 3.03 µM (inactive); with RXF 393, 5.66 µM (inactive); in the assay with U-251, 3.89 µM (inactive). For the same molecule, the GI50 in the assay with NCI-H460 was 2.88 µM (inactive); with 786-0, 4.24 µM (inactive); with HL-60, 1.76 µM (inactive); with KM12, 3.67 µM (inactive); in the assay on UACC-62 it was 1.72 µM (inactive); in the assay with EKVX, 4.3 µM (inactive). In addition, the GI50 with BT-549 is 4.74 µM (inactive); with TK-10, 3.18 µM (inactive); in the assay on IGROV-1, 2.94 µM (inactive); in the assay with OVCAR-4, 2.45 µM (inactive); with SF-268, 3.93 µM (inactive).
With `CC1=CC[C@H](C[C@H](C#CCCCC2OCCO2)O[Si](C(C)C)(C(C)C)C(C)C)C(=O)CC1`, the GI50 in the assay with A498, in the assay on MDA-N, in the assay with OVCAR-8, in the assay with OVCAR-3, with RXF 393 and in the assay on U-251 was > 100 µM (inactive) in each case. The GI50 in the assay with NCI-H460, in the assay on SK-MEL-2, in the assay on 786-0, in the assay with KM12, in the assay on UACC-62 and with EKVX was > 100 µM (inactive) in each case. The GI50 in the assay on BT-549, with UACC-257, in the assay with TK-10, with IGROV-1, with OVCAR-4 and with SF-268 was > 100 µM (inactive) in each case.
As for `Nc1nc(NNc2ccc(Cl)c(Cl)c2)cc(=O)[nH]1`, the GI50 with A498 was > 100 µM (inactive); with MDA-N it was 35.5 µM (inactive); in the assay on OVCAR-8, 44.9 µM (inactive); in the assay on OVCAR-3, 23 µM (inactive); in the assay on RXF 393 it was 25.5 µM (inactive); with U-251, 24.2 µM (inactive). Besides, the GI50 with NCI-H460 is 41.6 µM (inactive); in the assay on 786-0, 21.6 µM (inactive); with HL-60, 26.4 µM (inactive); in the assay with KM12, 30.8 µM (inactive); with EKVX it was 39.2 µM (inactive); in the assay with BT-549 it was 33.7 µM (inactive). Besides, the GI50 with UACC-257 was 43.2 µM (inactive); in the assay on TK-10, > 100 µM (inactive); in the assay on IGROV-1 it was 28.4 µM (inactive); with OVCAR-4, 52 µM (inactive); in the assay on SF-268 it was 19.7 µM (inactive).
As to `O=c1[nH]c(=O)n(COCc2ccccc2)cc1Nc1ccc(Br)cc1`, the GI50 was > 100 µM (inactive) in the assay on A498; > 100 µM (inactive) in the assay on MDA-N; > 100 µM (inactive) in the assay with OVCAR-3; 43.2 µM (inactive) with RXF 393; > 100 µM (inactive) with U-251; > 100 µM (inactive) in the assay with NCI-H460. For the same molecule, the GI50 with 786-0, in the assay on HL-60, with KM12, in the assay on UACC-62, in the assay with EKVX and with BT-549 was > 100 µM (inactive) throughout. The GI50 with UACC-257 is > 100 µM (inactive); with IGROV-1, 0.51 µM (active); in the assay with OVCAR-4, > 100 µM (inactive); in the assay on SF-268, 28.5 µM (inactive).
Regarding `COc1ccc2c3c1OC1C34CCN(C)C(C2)C4=CC(I)C1(OC)OC` (stereo not drawn), the GI50 in the assay with A498 was 22.9 µM (inactive); in the assay on MDA-N, 6.14 µM (inactive); with OVCAR-8 it was 4.09 µM (inactive); with OVCAR-3 it was 5.87 µM (inactive); in the assay on RXF 393 it was 10.5 µM (inactive); in the assay with U-251 it was 16.2 µM (inactive). For the same molecule, the GI50 in the assay with NCI-H460 is 13.5 µM (inactive); in the assay with SK-MEL-2, 15.6 µM (inactive); with 786-0, 4.15 µM (inactive); with KM12, 14.4 µM (inactive); with UACC-62, 14.6 µM (inactive); with EKVX, 14.4 µM (inactive). For the same molecule, the GI50 with BT-549 is 21.6 µM (inactive); in the assay on UACC-257, 13.2 µM (inactive); in the assay on TK-10 it was 14.7 µM (inactive); with IGROV-1, 8.71 µM (inactive); in the assay on OVCAR-4, 13.2 µM (inactive); in the assay with SF-268, 16.7 µM (inactive).
For the molecule `O=C([O-])Cc1ccccc1.[Na+]` [SODIUM PHENYLACETATE], the GI50 in the assay on A498 is 519 µM (inactive); with MDA-N, 10.6 µM (inactive); in the assay on OVCAR-8, 611 µM (inactive); in the assay on OVCAR-3, 550 µM (inactive); with RXF 393, 582 µM (inactive); in the assay on U-251, 729 µM (inactive). For the same molecule, the GI50 in the assay with NCI-H460 was 342 µM (inactive); in the assay on SK-MEL-2, > 2000 µM (inactive); with 786-0, 1070 µM (inactive); in the assay with KM12, 773 µM (inactive); in the assay on UACC-62, 1370 µM (inactive); with EKVX it was > 2000 µM (inactive). In addition, the GI50 was 723 µM (inactive) in the assay with BT-549; > 2000 µM (inactive) in the assay with UACC-257; 1130 µM (inactive) with TK-10; 597 µM (inactive) with IGROV-1; 255 µM (inactive) in the assay on OVCAR-4; 1340 µM (inactive) with SF-268.
